{"source": "patent US8691799B2", "about": "“Materials and methods for treatment of cancer and identification of anti-cancer compounds” (priority 2001, dated 2014)", "key": {"[1]": {"tested_on": "SRE-dependent pRLSRE renilla luciferase reporter", "test": "SRE-dependent luciferase reporter assay in v-Src/NIH 3T3 fibroblasts", "format": "cell-based, murine", "details": "10 μM, 24-48 hr", "source_text": "(§1) DNA Binding and Transcription. The STAT3 reporter, pLucTKS3, driving expression of firefly luciferase has been previously described (Turkson, J. et al. Mol. Cell Biol., 1999, 19:7519-7528). The pLucTKS3 plasmid harbors seven copies of a sequence corresponding to the STAT3-specific binding site in the promoter of the human C-reactive protein gene (Zhang, D. et al. J. Biol. Chem., 1996, 271:9503-9509). The STAT3-independent plasmid, pRLSRE, contains two copies of the serum response element (SRE) from the c-fos promoter (Yamauchi, K. et al. J. Biol. Chem., 1993, 268:14597-14600), subcloned into renilla luciferase reporter, pRL-null (Promega Corporation, Madison, Wis.).\n(§2) Transfection and Generation of Stable Clones. […]\n(§3) Preparation of Cytosolic Extracts. […] Cells were resuspended in 0.4 ml of low-salt HEPES buffer (10 mM HEPES, pH 7.8, 10 mM KCl, 0.1 mM EGTA, 0.1 mM EDTA, 1 mM PMSF, and 1 mM DTT) for 15 min, lysed by the addition of 20 μl of 10% NP-40, and centrifuged (10,000×g, 30 sec, 4° C.) to obtain the cytosolic supernatant, which was used for luciferase assays (Promega Corporation) measured with a luminometer."}, "Src": {"tested_on": "Src", "test": "Src kinase autophosphorylation assay on immunoprecipitates", "format": "biochemical", "details": "immunoprecipitates from A549, MDA-MB-468 or v-Src/NIH 3T3 cells", "method": "Src Kinase Assay. A549, MDA-MB-468, and v-Src cells were harvested and lysed for 30 min on ice in RIPA150 buffer (10 mM Tris, pH 7.5, 150 mM NaCl, 10% glycerol, 5 mM EDTA, 1% Triton-X-100, 0.1% SDS, 100 μM sodium orthovanadate, 10 μg/ml aprotinin, 10 μg/ml leupeptin, 1 μg/ml antipain). Samples were spun at high speed to clear, then 1000 μg of protein were immunoprecipitated per treatment condition with 2 μg v-Src antibody (Ab-1, Oncogene Research Products, San Diego, Calif.) rocking overnight at 4° C. 25 μl of protein A/G PLUS agarose then was added and rocking continued for 4 hr at 4° C. Samples were spun to collect agarose pellet, and pellet washed three times in RIPA150 buffer, twice in RIPA10 buffer (10 mM Tris, pH 7.5, 10 mM NaCl, 10% glycerol, 5 mM EDTA, 1% Triton-X-100, 0.1% SDS, 100 μM sodium orthovanadate 10 μg/ml aprotinin, 10 μg/ml leupeptin, 1 μg/ml antipain), and three times in 40 mM Tris, pH 7.4. Pellet was then resuspended in 30 μl kinase reaction buffer (20 mM Tris, pH 7.4, 5 mM MgCl2) containing 10 μCi γ-[^32P]ATP. Inhibitors were preincubated for several minutes before the addition of the ATP. Kinase reactions were carried out at room temperature for 15 min. Reaction was stopped with the addition of 2×SDS-PAGE sample buffer. Samples were boiled and run on 10% SDS-PAGE gels. Autophosphorylation results were visualized by autoradiography."}, "JAK1": {"tested_on": "JAK1", "test": "JAK kinase autophosphorylation assay on immunoprecipitates (JAK1)", "format": "biochemical", "details": "immunoprecipitates from MDA-MB-468 or v-Src/NIH 3T3 cells; AG490 100 μM, PD180970 2 μM", "method": "JAK Kinase Assays. A549, MDA-MB-468, and v-Src transformed NIH 3T3 cells were harvested, washed three times in PBS-V (10 mM sodium phosphate, pH 7.4, 137 mM NaCl, 1 mM sodium orthovanadate) then lysed for 30 min on ice in JAK kinase lysis buffer (25 mM Hepes, pH 7.4, 0.1% Triton-X-100, 0.5 mM DTT, 1 mM sodium orthovanadate, 1 mM PMSF, 10 μg/ml aprotinin, 10 μg/ml leupeptin). Samples were spun at high speed to clear, and 800-1000 μg of protein was immunoprecipitated per treatment condition with 50 ng of either JAK1 or JAK2 antibody (Santa Cruz Biotechnology) rocking overnight at 4° C. 25 μl of protein A/G PLUS agarose then was added and rocking continued for 1 hr at 4° C. Samples were spun to collect agarose pellet, and pellet washed twice in wash buffer (50 mM Hepes, pH 7.4, 0.1% Triton-X-100, 0.5 mM DTT, 150 mM NaCl) and once in phosphorylation buffer (50 mM Hepes, pH 7.4, 0.1% Triton-X-100, 0.5 mM DTI, 6.25 mM manganese chloride, 100 mM NaCl). Kinase reactions were performed at 30° C. for 15 min in a final volume of 100 μl of phosphorylation buffer. Samples were pretreated with DMSO control, JSI-124, and control compounds (AG490, 100 μM, and […], 2 μM) before addition of 20 μCi/sample y-[^32P]ATP. Reaction was halted using stop buffer (wash buffer plus 10 mM EDTA), samples spun to collect pellet, then pellet washed once with stop buffer and twice with wash buffer. Samples were then placed in 2×SDS-PAGE sample buffer, boiled at 100° C., and run on 8% SDS-PAGE gels to separate proteins. Autophosphorylation results were visualized by autoradiography."}, "[2]": {"tested_on": "STAT3-dependent pLucTKS3 luciferase reporter", "test": "STAT3-dependent luciferase reporter assay in v-Src/NIH 3T3 fibroblasts", "format": "cell-based, murine", "details": "10 μM, 24-48 hr", "source_text": "as §1, §2, §3"}}}
{"compound": "CC(C)(O)/C=C/C(=O)[C@](C)(O)[C@H]1[C@H](O)C[C@@]2(C)[C@@H]3CC=C4[C@@H](C=C(O)C(=O)C4(C)C)[C@]3(C)C(=O)C[C@]12C", "note": "[JSI-124, cucurbitacin I]", "values": [{"measurement": "pRLSRE (SRE-dependent) luciferase reporter", "setting": "[1]", "value": "without affecting"}, {"measurement": "Src kinase activity (autophosphorylation) in vitro", "setting": "Src", "value": "not affected"}, {"measurement": "JAK1 kinase activity (autophosphorylation) in vitro", "setting": "JAK1", "value": "not affected"}, {"measurement": "induction of STAT3-dependent pLucTKS3 luciferase reporter", "setting": "[2]", "value": "significantly suppresses"}]}
